Results from US8846704B2, “Thiopyrimidine-based compounds and uses thereof” (YM Biosciences Austraila Pty Ltd, priority 2007, dated 2014).

Tests used:
BaF3 wild-type cells = experiment: Cellular screening, BaF3 wild-type cells, Alamar Blue; assay type: cell-based; settings: Mus musculus, 40 hr, read-out: BAF3wt IC50_nM
In short: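 Cells were cultured in DMEM with 10% FCS and 10% WEHI 3B conditioned medium, and suspensions were prepared at 1.1× final (50,000–200,000 cells/mL). Compounds from 20 μM dilution plates were added at 10× final and incubated for 40 hr at 37° C, 5% CO2. Alamar Blue was then added for 4–6 hours and read at 544 nm.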

BTK(h) = biological target: T1, BTK(h) (Homo sapiens, UniProt Q06187); experiment: Upstate KinaseProfiler enzyme assay, BTK; assay type: biochemical; settings: 500 nM compound; read-out: Percent inhibition at 500 nM BTK(h)
T1 construct: purchased Upstate Biotechnology (Dundee, UK), KinaseProfiler service
Protocol: (§1) Further enzyme assays were conducted at Upstate Biotechnology (Dundee, UK) in the KinaseProfiler™ Assay system.
(§2) The general protocol is as follows. All kinases are pre-diluted to a 10× working concentration prior to addition into the assay. The composition of the dilution buffer for the kinases is 20 mM MOPS pH 7.0, 1 mM EDTA, 0.1% β-mercaptoethanol, 0.01% Brij-35, 5% glycerol, 1 mg/ml BSA. All substrates are dissolved and diluted to working stocks in de-ionised water.

KDR(h) = biological target: T2, KDR(h) (Homo sapiens, UniProt P35968); experiment: Upstate KinaseProfiler enzyme assay, KDR; assay type: biochemical; settings: 500 nM compound; read-out: Percent inhibition at 500 nM KDR(h)
T2 construct: purchased Upstate Biotechnology (Dundee, UK), KinaseProfiler service
Protocol: as §1, §2

Flt 4(h) = biological target: T3, Flt 4(h) (Homo sapiens, UniProt P35916); experiment: Upstate KinaseProfiler enzyme assay, Flt 4; assay type: biochemical; settings: 500 nM compound; read-out: Percent inhibition at 500 nM Flt 4(h)
T3 construct: purchased Upstate Biotechnology (Dundee, UK), KinaseProfiler service
Protocol: as §1, §2

human JAK1 = biological target: T4, human JAK1 (Homo sapiens, UniProt P23458); experiment: Alphascreen tyrosine kinase enzyme assay, JAK1 kinase domain; assay type: biochemical; settings: read-out: JAK1 IC50_nM
T4 construct: The kinase domain of human JAK1 was amplified; GST (N); made in house; host or cells: Sf9 insect cells (baculovirus)

Flt 1(h) = biological target: T5, Flt 1(h) (Homo sapiens, UniProt P17948); experiment: Upstate KinaseProfiler enzyme assay, Flt 1; assay type: biochemical; settings: 500 nM compound; read-out: Percent inhibition at 500 nM Flt 1(h)
T5 construct: purchased Upstate Biotechnology (Dundee, UK), KinaseProfiler service
Protocol: as §1, §2

Blk(m) = biological target: T6, Blk(m) (Mus musculus, UniProt P16277); experiment: Upstate KinaseProfiler enzyme assay, Blk; assay type: biochemical; settings: 500 nM compound; read-out: Percent inhibition at 500 nM Blk(m)
T6 construct: purchased Upstate Biotechnology (Dundee, UK), KinaseProfiler service
Protocol: as §1, §2

CTLL2 = experiment: Cellular screening, CTLL2 cells, Alamar Blue; assay type: cell-based; settings: Mus musculus, CTLL-2, read-out: CTLL2 IC50_nM
In short: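 CTLL2 cells in late log phase incubated with compound for 40 hr at 37° C, 5% CO2. Viability then read at 544 nm after a further 4-6 hours with Alamar Blue.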

T2 sequence (P35968 20-1356): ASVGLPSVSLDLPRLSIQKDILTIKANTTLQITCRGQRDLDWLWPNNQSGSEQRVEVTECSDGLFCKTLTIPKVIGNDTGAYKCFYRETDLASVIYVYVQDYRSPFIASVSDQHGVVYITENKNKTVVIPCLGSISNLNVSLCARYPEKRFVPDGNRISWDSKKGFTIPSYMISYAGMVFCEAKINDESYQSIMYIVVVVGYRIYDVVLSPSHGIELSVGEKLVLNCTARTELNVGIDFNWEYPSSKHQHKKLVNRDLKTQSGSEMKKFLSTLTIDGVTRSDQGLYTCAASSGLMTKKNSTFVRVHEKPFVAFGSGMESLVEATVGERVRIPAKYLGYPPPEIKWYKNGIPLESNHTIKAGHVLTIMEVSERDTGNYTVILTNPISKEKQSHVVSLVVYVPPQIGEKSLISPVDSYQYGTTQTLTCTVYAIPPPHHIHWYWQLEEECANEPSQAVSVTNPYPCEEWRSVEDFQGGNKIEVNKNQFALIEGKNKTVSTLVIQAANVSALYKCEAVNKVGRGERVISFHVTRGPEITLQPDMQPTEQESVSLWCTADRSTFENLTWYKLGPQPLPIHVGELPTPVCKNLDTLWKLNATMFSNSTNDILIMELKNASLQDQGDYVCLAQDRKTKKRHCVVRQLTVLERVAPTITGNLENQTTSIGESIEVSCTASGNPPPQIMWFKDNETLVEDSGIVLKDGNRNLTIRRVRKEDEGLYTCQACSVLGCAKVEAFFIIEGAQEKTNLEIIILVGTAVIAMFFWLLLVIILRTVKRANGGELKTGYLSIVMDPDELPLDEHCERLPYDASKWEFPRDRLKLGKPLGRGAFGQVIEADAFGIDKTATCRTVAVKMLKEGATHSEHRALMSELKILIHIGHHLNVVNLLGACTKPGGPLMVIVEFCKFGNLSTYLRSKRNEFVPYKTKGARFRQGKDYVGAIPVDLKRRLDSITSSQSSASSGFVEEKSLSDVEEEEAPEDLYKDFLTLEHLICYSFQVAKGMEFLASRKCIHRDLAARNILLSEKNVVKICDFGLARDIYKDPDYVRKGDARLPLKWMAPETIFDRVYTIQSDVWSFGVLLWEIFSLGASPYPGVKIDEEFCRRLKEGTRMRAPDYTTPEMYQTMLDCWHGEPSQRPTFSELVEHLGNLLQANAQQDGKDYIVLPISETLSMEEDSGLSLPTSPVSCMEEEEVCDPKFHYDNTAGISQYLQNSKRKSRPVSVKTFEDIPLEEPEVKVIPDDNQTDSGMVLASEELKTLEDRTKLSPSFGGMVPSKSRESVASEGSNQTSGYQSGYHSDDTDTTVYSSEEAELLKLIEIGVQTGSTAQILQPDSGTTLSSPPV
T5 sequence (P17948 27-1338): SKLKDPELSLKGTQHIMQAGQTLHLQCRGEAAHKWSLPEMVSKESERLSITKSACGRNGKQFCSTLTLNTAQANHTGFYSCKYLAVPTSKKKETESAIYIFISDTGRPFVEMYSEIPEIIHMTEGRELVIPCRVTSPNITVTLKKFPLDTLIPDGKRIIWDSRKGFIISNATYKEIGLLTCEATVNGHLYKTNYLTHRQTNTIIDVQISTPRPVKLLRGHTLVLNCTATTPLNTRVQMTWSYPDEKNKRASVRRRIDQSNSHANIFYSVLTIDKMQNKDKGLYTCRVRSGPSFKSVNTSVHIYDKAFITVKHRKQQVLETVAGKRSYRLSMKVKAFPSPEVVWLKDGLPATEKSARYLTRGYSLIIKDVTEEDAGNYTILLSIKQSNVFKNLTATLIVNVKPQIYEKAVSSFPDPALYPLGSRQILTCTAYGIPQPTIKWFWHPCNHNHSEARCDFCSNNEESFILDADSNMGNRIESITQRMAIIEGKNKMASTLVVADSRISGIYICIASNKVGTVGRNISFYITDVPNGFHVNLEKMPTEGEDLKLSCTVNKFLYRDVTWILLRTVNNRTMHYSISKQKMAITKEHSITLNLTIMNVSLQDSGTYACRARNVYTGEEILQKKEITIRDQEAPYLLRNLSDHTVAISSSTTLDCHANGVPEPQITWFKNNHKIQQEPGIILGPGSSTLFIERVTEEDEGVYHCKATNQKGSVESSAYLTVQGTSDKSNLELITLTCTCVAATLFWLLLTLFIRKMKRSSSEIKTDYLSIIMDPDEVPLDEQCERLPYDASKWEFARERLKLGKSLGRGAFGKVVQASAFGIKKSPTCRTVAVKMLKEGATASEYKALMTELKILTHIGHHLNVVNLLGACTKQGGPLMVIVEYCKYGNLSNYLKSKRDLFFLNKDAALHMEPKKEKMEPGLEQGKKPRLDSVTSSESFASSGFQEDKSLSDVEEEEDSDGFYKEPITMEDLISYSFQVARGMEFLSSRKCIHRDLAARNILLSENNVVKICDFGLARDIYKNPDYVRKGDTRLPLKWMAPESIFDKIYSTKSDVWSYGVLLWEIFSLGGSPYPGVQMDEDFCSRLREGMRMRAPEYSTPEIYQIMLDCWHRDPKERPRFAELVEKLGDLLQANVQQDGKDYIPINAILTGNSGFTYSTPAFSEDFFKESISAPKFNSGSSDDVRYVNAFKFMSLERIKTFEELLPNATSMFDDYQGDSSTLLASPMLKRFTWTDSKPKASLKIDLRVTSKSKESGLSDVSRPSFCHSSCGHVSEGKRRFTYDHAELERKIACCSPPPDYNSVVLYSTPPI
T6 sequence (P16277 whole entry): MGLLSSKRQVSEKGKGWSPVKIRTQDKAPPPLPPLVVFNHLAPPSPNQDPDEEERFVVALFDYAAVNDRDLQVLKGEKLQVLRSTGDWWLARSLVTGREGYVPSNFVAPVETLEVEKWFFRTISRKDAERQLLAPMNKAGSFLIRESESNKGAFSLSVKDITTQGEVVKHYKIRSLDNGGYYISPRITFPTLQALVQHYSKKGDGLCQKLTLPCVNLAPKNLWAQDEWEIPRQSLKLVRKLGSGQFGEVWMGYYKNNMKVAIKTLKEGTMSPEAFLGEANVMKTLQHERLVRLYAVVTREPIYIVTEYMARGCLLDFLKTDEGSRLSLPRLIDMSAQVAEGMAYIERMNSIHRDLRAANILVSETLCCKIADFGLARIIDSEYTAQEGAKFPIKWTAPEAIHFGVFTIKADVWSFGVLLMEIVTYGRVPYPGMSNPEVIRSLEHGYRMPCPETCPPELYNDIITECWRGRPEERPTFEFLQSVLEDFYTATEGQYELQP
T3 sequence (P35916 25-1363): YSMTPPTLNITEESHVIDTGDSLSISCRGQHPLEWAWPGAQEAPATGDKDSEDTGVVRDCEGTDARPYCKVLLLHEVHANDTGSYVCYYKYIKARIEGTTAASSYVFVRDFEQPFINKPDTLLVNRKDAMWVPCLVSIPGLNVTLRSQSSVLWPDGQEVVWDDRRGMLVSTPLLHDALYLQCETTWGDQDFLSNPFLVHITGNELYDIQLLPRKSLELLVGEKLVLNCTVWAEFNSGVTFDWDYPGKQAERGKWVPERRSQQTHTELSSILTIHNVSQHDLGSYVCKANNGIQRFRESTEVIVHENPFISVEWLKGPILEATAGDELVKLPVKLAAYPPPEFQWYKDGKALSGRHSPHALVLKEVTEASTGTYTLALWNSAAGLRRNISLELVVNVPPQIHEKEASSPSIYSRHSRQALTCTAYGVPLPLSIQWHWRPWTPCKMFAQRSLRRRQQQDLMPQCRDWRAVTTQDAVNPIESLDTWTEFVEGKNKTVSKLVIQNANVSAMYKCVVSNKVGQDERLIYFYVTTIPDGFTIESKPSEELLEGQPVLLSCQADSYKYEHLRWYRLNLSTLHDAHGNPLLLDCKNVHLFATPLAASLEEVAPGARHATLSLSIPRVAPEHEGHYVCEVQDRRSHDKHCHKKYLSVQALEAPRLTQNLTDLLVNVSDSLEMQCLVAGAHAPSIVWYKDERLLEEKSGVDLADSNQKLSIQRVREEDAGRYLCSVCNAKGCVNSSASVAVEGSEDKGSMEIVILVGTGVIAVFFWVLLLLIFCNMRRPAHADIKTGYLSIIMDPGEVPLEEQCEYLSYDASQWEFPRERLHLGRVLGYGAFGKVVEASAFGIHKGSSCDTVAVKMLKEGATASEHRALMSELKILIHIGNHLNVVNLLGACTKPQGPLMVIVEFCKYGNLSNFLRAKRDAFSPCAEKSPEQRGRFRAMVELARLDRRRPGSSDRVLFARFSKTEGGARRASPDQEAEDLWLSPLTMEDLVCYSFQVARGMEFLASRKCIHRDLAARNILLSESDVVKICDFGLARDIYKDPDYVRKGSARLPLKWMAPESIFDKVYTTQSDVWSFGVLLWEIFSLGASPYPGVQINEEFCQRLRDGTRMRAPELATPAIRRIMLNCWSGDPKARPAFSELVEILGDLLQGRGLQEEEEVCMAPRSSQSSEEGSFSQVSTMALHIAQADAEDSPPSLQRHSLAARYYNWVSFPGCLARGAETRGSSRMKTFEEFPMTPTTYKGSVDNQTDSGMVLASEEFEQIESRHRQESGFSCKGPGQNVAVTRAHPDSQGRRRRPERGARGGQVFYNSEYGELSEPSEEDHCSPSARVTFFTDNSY
T4 sequence (P23458 875-1153 limits assumed): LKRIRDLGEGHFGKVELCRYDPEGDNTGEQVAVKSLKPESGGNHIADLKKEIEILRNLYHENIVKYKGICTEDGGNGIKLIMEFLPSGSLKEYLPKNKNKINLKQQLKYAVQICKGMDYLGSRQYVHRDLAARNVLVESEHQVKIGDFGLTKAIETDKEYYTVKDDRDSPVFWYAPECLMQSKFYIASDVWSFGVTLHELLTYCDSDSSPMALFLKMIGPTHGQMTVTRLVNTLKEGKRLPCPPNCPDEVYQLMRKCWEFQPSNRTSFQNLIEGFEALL

Compound | IC50 (BaF3 wild-type cells) | inhibition at 0.5 µM (BTK(h)) | inhibition at 0.5 µM (KDR(h)) | inhibition at 0.5 µM (Flt 4(h)) | IC50 (human JAK1) | inhibition at 0.5 µM (Flt 1(h)) | inhibition at 0.5 µM (Blk(m)) | IC50 (CTLL2)
C=CC(=O)Nc1ccc(Sc2nc(Nc3cccc(N4CCN(C)CC4)c3)ncc2C)cc1 [Compound 243, N-(4-(5-methyl-2-(3-(4-methylpiperazin-1-yl)phenylao)pyrimidin-4-ylthio)phenyl)acrylamide] | < 5000 nM | 97% | 97% | 100% | > 1000 nM | 100% | 99% | < 1000 nM
C=CC(=O)Nc1ccc(Sc2nc(Nc3ccc(N4CCC(CO)CC4)cc3)ncc2C)cc1 [Compound 286, N-(4-(2-(4-(4-(hydroxymethyl)piperidin-1-yl)phenylao)-5-methylpyrimidin-4-ylthio)phenyl)acrylamide] | > 20000 nM | 74% | 94% | 100% | > 1000 nM | 98% | 88% | < 1000 nM
C=CC(=O)Nc1ccc(Sc2nc(Nc3ccc(OCCCN(CC)CC)cc3)ncc2C)cc1 [Compound 291, N-(4-(2-(4-(3-(diethylao)propoxy)phenylao)-5-methylpyrimidin-4-ylthio)phenyl)acrylamide] | < 5000 nM | 95% | 96% | 100% | > 1000 nM | 100% | 99% | < 1000 nM
C=CC(=O)Nc1ccc(Sc2nc(Nc3ccc(OCCN4CCOCC4)cc3)ncc2C)cc1 [Compound 290, N-(4-(5-methyl-2-(4-(2-morpholinoethoxy)phenylao)pyrimidin-4-ylthio)phenyl)acrylamide] | < 5000 nM | 94% | 95% | 100% | > 1000 nM | 100% | 97% | < 1000 nM
Cc1cc(N)ccc1Sc1nc(Nc2ccc(N3CCOCC3)cc2)ncc1C [Compound 162, 4-(4-ao-2-methylphenylthio)-5-methyl-N-(4-morpholinophenyl)pyrimidin-2-ae] | < 20000 nM |  | 95% | 98% | < 500 nM | 82% | 50% | < 5000 nM
C=CC(=O)Nc1ccc(Sc2nc(Nc3cccc(CO)c3)ncc2C)cc1 [Compound 280, N-(4-(2-(3-(hydroxymethyl)phenylao)-5-methylpyrimidin-4-ylthio)phenyl)acrylamide] | < 20000 nM | 97% | 97% | 100% | > 1000 nM | 100% | 99% | < 1000 nM
C=CC(=O)Nc1ccc(Sc2nc(Nc3ccc(OC)c(NS(C)(=O)=O)c3)ncc2C)cc1 [Compound 293, N-(4-(2-(4-methoxy-3-(methylsulfonamido)phenylao)-5-methylpyrimidin-4-ylthio)phenyl)acrylamide] | < 5000 nM | 55% | 95% | 100% | > 1000 nM | 79% | 30% | < 1000 nM
Cc1cnc(Nc2ccc(N3CCOCC3)cc2)nc1Sc1c(C)cc(N)cc1C [Compound 165, 4-(4-ao-2,6-dimethylphenylthio)-5-methyl-N-(4-morpholinophenyl)pyrimidin-2-ae] | > 20000 nM |  | 86% | 99% | > 1000 nM | 43% | 0% | > 20000 nM
C=CC(=O)Nc1ccc(Sc2ccnc(Nc3ccc(N4CCN(C)CC4)cc3)n2)cc1 [Compound 238, N-(4-(2-(4-(4-methylpiperazin-1-yl)phenylao)pyrimidin-4-ylthio)phenyl)acrylamide] |  |  | 95% | 99% |  | 97% | 99% | 
CC#CC(=O)Nc1ccc(Sc2ccnc(Nc3cccc(N4CCOCC4)c3)n2)cc1 [Compound 233, N-(4-(2-(3-morpholinophenylao)pyrimidin-4-ylthio)phenyl)but-2-ynamide] | < 5000 nM |  | 98% | 99% |  | 99% | 85% | < 5000 nM
C=CC(=O)Nc1ccc(Sc2nc(Nc3cccc(OC)c3)ncc2C)cc1 [Compound 235, N-(4-(2-(3-methoxyphenylao)-5-methylpyrimidin-4-ylthio)phenyl)acrylamide] |  |  | 96% | 99% |  | 86% | 86% | 
N#Cc1nnnn1Cc1ccc(Sc2ccnc(Nc3ccc(N4CCOCC4)cc3)n2)cc1 [Compound 155, 1-(4-(2-(4-morpholinophenylao)pyrimidin-4-ylthio)benzyl)-1H-tetrazole-5-carbonitrile] | < 20000 nM | 81% | 98% | 99% | > 1000 nM | 74% | 40% | < 5000 nM
C=CC(=O)Nc1ccc(Sc2nc(Nc3ccc(N4CCOCC4)cc3)ncc2C)c(C)c1 [Compound 163, N-(3-methyl-4-(5-methyl-2-(4-morpholinophenylao)pyrimidin-4-ylthio)phenyl)acrylamide] | > 20000 nM |  | 97% | 99% | > 1000 nM | 83% | 95% | < 1000 nM
C=CC(=O)Nc1ccc(Sc2nc(Nc3cccc(NS(C)(=O)=O)c3)ncc2C)cc1 [Compound 288, N-(4-(5-methyl-2-(3-(methylsulfonamido)phenylao)pyrimidin-4-ylthio)phenyl)acrylamide] | < 20000 nM | 98% | 94% | 100% | > 1000 nM | 100% | 99% | < 1000 nM
C=CC(=O)Nc1ccc(Sc2nc(Nc3cccc(N4CCOCC4)c3)ncc2C)cc1 [Compound 237, N-(4-(5-methyl-2-(3-morpholinophenylao)pyrimidin-4-ylthio)phenyl)acrylamide] | < 1000 nM |  | 97% | 99% |  | 98% | 96% | < 1000 nM
C=CC(=O)N(C)c1ccc(Sc2nc(Nc3ccc(N4CCOCC4)cc3)ncc2C)cc1 [Compound 173, N-methyl-N-(4-(5-methyl-2-(4-morpholinophenylao)pyrimidin-4-ylthio)phenyl)acrylamide] | < 20000 nM | 93% | 96% | 98% | < 500 nM | 95% | 93% | < 1000 nM
Cc1cnc(Nc2ccc(N3CCOCC3)cc2)nc1Sc1ccc(N2C(=O)CSCC2=O)cc1 [Compound 231, 4-(4-(5-methyl-2-(4-morpholinophenylao)pyrimidin-4-ylthio)phenyl)thiomorpholine-3,5-dione] | > 20000 nM | 91% | 99% | 100% | > 1000 nM | 95% | 82% | < 20000 nM
C=CC(=O)Nc1ccc(Sc2nc(Nc3ccc(C4CCN(C)CC4)cc3)ncc2C)cc1 [Compound 246, N-(4-(5-methyl-2-(4-(1-methylpiperidin-4-yl)phenylao)pyrimidin-4-ylthio)phenyl)acrylamide] |  | 97% | 93% | 100% | > 1000 nM | 100% | 97% | 
C=CC(=O)Nc1cccc(Nc2nccc(Sc3ccc(OC)cc3)n2)c1 [Compound 42, N-(3-(4-(4-methoxyphenylthio)pyrimidin-2-ylao)phenyl)acrylamide] | < 20000 nM | 100% | 100% |  | > 1000 nM |  | 59% | < 5000 nM
